Experimental data from ChEMBL document CHEMBL5500331, “Discovery of novel peptide-dehydroepiandrosterone hybrids inducing endoplasmic reticulum stress with effective in vitro and in vivo anti-melanoma activities” (Eur J Med Chem, 2024).
pIC50: −log10 of the molar value. The source made the active and inactive calls. The calls are words filed in the database; no cut-off is given here.

Legend:
[1] = Drug metabolism in mouse plasma assessed as abiraterone Tmax at 20 mg/kg, IG; type: ADME, organism-based; settings: in vivo, po
[2] = tested on: B16; assay: Induction of endoplasmic reticulum (ER) stress in mouse B16 cells assessed as increase in […] expression at 9.70 uM measured after 48 hrs by Western blot analysis; type: functional, cell-based; settings: dose 9.7 µM
[3] = tested on: B16; assay: Induction of endoplasmic reticulum (ER) stress in mouse B16 cells assessed as appearance of damaged ER at 9.70 uM measured after 24 hrs by confocal microscopy based analysis; type: functional, cell-based; settings: dose 9.7 µM
[4] = Inhibition of cell invasion in mouse B16 cells at 9.70 uM measured after 24 hrs by crystal violet staining based analysis relative to control; type: functional
[5] = tested on: B16; assay: Anti-melanoma activity against mouse B16 cells xenografted in Kunming mouse model assessed as decrease in bcl-2 level at 40 to 60 mg/kg, IG measured after 27 days by IHC staining based analysis; type: functional, organism-based; settings: dose 40-60 mg/kg, time 27.0 day
[6] = tested on: B16; assay: Anti-melanoma activity against mouse B16 cells xenografted in Kunming mouse model assessed as reduction in tumor volume at 40 mg/kg, IG measured after 7 to 27 days; type: functional, organism-based; settings: time 7-27 day
[7] = Toxicity in Kunming mouse assessed as effect on body weight at 80 mg/kg, IG measured after 21 days; type: organism-based; settings: in vivo, po, 504 h, time 21 day
[8] = tested on: B16; assay: Anti-melanoma activity against mouse B16 cells xenografted in Kunming mouse model assessed as inhibition of tumor weight at 60 mg/kg, IG measured every two days for 27 days relative to control; type: functional; set-up: scale not given: the % may be the effect or the level left; settings: time 27 day
[9] = tested on: B16; assay: Anti-melanoma activity against mouse B16 cells xenografted in Kunming mouse model assessed as reduction in tumor volume at 60 to 80 mg/kg, IG measured after 7 to 27 days; type: functional, organism-based; settings: dose 60-80 mg/kg, time 7-27 day
[10] = tested on: B16; assay: Anti-melanoma activity against mouse B16 cells xenografted in Kunming mouse model assessed as suppression of tumor weight at 40 mg/kg, IG measured every two days for 27 days (reference value: 10.61+/-1.05g); type: functional; settings: time 27 day
[11] = tested on: B16; assay: Induction of endoplasmic reticulum (ER) stress in mouse B16 cells assessed as decrease in alix expression at 9.70 uM measured after 48 hrs by Western blot analysis; type: functional, cell-based; settings: dose 9.7 µM
[12] = tested on: B16; assay: Anti-melanoma activity against mouse B16 cells xenografted in Kunming mouse model assessed as increase in caspase 8 expression at 40 to 60 mg/kg, IG measured after 27 days by IHC staining based analysis; type: functional, organism-based; settings: dose 40-60 mg/kg, time 27.0 day
[13] = tested on: B16; assay: Induction of endoplasmic reticulum (ER) stress in mouse B16 cells assessed as appearance of vacuolated ER at 9.70 uM measured after 24 hrs by confocal microscopy based analysis; type: functional, cell-based; settings: dose 9.7 µM
[14] = tested on: B16; assay: Induction of apoptosis in mouse B16 cells at 4.85 uM measured after 48 hrs by annexin-V/PI double staining based flow cytometry analysis; type: functional, cell-based
[15] = Inhibition of cell migration in mouse B16 cells at 9.70 uM measured after 48 hrs by scratch-wound healing assay relative to control; type: functional
[16] = Antiproliferative activity against human Prostate tumor cell line at 25 uM measured after 48 hrs by MTT assay relative to control; type: functional
[17] = tested on: B16; assay: Upregulation of caspase 3 expression in mouse B16 cells at 9.70 uM measured after 48 hrs by Western blot analysis; type: functional, cell-based; settings: dose 9.7 µM
[18] = tested on: B16; assay: Anti-melanoma activity against mouse B16 cells xenografted in Kunming mouse model assessed as suppression of tumor weight at 80 mg/kg, IG measured every two days for 27 days (reference value: 10.61+/-1.05g); type: functional; settings: time 27 day
[19] = tested on: B16; assay: Induction of endoplasmic reticulum (ER) stress in mouse B16 cells assessed as increase in CHOP expression at 9.70 uM measured after 48 hrs by Western blot analysis; type: functional, cell-based; settings: dose 9.7 µM
[20] = Toxicity in Kunming mouse assessed as increase in survival rate at 80 mg/kg, IG measured after 27 days relative to control; type: organism-based; settings: in vivo, po, time 27 day
[21] = Inhibition of cell migration in mouse B16 cells at 9.70 uM measured after 24 hrs by crystal violet staining based analysis relative to control; type: functional
[22] = tested on: B16; assay: Anti-melanoma activity against mouse B16 cells xenografted in Kunming mouse model assessed as reduction in tumor volume at 40 to 80 mg/kg, IG measured after 5 days; type: functional, organism-based; settings: dose 40-80 mg/kg, time 5.0 day
[23] = tested on: B16; assay: Antiproliferative activity against mouse B16 cells measured after 48 hrs by MTT assay; type: functional, cell-based; settings: B16, 48 h
[24] = tested on: B16; assay: Anti-melanoma activity against mouse B16 cells xenografted in Kunming mouse model assessed as inhibition of tumor weight at 40 mg/kg, IG measured every two days for 27 days relative to control; type: functional; set-up: scale not given: the % may be the effect or the level left; settings: time 27 day
[25] = tested on: B16; assay: Anti-melanoma activity against mouse B16 cells xenografted in Kunming mouse model assessed as increase in bax expression at 40 to 60 mg/kg, IG measured after 27 days by IHC staining based analysis; type: functional, organism-based; settings: dose 40-60 mg/kg, time 27.0 day
[26] = tested on: B16; assay: Anti-melanoma activity against mouse B16 cells xenografted in Kunming mouse model assessed as inhibition of tumor weight at 80 mg/kg, IG measured every two days for 27 days relative to control; type: functional; set-up: scale not given: the % may be the effect or the level left; settings: time 27 day
[27] = tested on: B16; assay: Anti-melanoma activity against mouse B16 cells xenografted in Kunming mouse model assessed as reduction in tumor volume at 60 to 80 mg/kg, IG measured after 11 days relative to control; type: functional; set-up: scale not given: the % may be the effect or the level left; settings: dose 60-80 mg/kg, time 11 day
[28] = tested on: B16; assay: Anti-melanoma activity against mouse B16 cells xenografted in Kunming mouse model assessed as reduction in tumor volume at 40 mg/kg, IG measured after 19 days; type: functional, organism-based; settings: time 19.0 day
[29] = tested on: B16; assay: Anti-melanoma activity against mouse B16 cells xenografted in Kunming mouse model assessed as increase in caspase 3 expression at 40 to 60 mg/kg, IG measured after 27 days by IHC staining based analysis; type: functional, organism-based; settings: dose 40-60 mg/kg, time 27.0 day
[30] = Toxicity in Kunming mouse assessed as effect on body weight at 40 mg/kg, IG measured after 21 days; type: organism-based; settings: in vivo, po, 504 h, time 21 day
[31] = tested on: B16; assay: Induction of endoplasmic reticulum (ER) stress in mouse B16 cells assessed as fragmented distribution at 25 uM measured after 24 hrs by confocal microscopy based analysis; type: functional, cell-based
[32] = tested on: B16; assay: Upregulation of […] expression in mouse B16 cells at 9.70 uM measured after 48 hrs by Western blot analysis; type: functional, cell-based; settings: dose 9.7 µM
[33] = tested on: B16; assay: Upregulation of caspase 8 expression in mouse B16 cells at 9.70 uM measured after 48 hrs by Western blot analysis; type: functional, cell-based; settings: dose 9.7 µM
[34] = tested on: B16; assay: Anti-melanoma activity against mouse B16 cells xenografted in Kunming mouse model assessed as suppression of tumor weight at 60 mg/kg, IG measured every two days for 27 days (reference value: 10.61+/-1.05g); type: functional; settings: time 27 day
[35] = tested on: B16; assay: Downregulation of Bcl-2 expression in mouse B16 cells at 9.70 uM measured after 48 hrs by Western blot analysis; type: functional, cell-based; settings: dose 9.7 µM
[36] = Drug metabolism in mouse plasma assessed as abiraterone Cmax at 20 mg/kg, IG; type: ADME, organism-based; settings: in vivo, po
[37] = Toxicity in Kunming mouse assessed as effect on body weight at 60 mg/kg, IG measured after 21 days; type: organism-based; settings: in vivo, po, 504 h, time 21 day
[38] = Toxicity in Kunming mouse assessed as increase in survival rate at 60 mg/kg, IG measured after 27 days relative to control; type: organism-based; settings: in vivo, po, time 27 day

Q: With `CC(C)[C@H](NC(=O)CN)C(=O)O[C@H]1CC[C@@]2(C)C(=CC[C@@H]3[C@@H]2CC[C@]2(C)C(c4cccnc4)=CC[C@@H]32)C1` as the compound, how does the Tmax [1] read?
A: 8 h

Q: And the Activity [2]?
A: Active

Q: What about the Activity [3] of the same compound?
A: Active

Q: And the inhibition at 9.7 µM [4]?
A: ~65%

Q: What about the Activity [5] of the same compound?
A: Active

Q: And the Activity [6]?
A: inactive

Q: What about the Activity [7] of the same compound?
A: Non-Toxic

Q: And the Activity [8]?
A: 98.12%

Q: And the Activity [9]?
A: Active

Q: And the Activity [10]?
A: 1.7 g

Q: What about the Activity [11] of the same compound?
A: Active

Q: What about the Activity [12] of the same compound?
A: Active

Q: And the Activity [13]?
A: Active

Q: What about the Activity [14] of the same compound?
A: Active

Q: What about the inhibition at 9.7 µM [15] of the same compound?
A: 66%

Q: And the Activity [16]?
A: 13.6%

Q: What about the Activity [17] of the same compound?
A: Active

Q: And the Activity [18]?
A: 0.23 g

Q: And the Activity [19]?
A: Active

Q: And the survival at 648 h [20]?
A: 100%

Q: What about the inhibition at 9.7 µM [21] of the same compound?
A: 70%

Q: What about the Activity [22] of the same compound?
A: Active

Q: What about the pIC50 [23] of the same compound?
A: 5.01

Q: And the Activity [24]?
A: 83.96%

Q: And the Activity [25]?
A: Active

Q: What about the Activity [26] of the same compound?
A: 99.06%

Q: And the Activity [27]?
A: 100%

Q: And the Activity [28]?
A: Active

Q: What about the Activity [29] of the same compound?
A: Active

Q: And the Activity [30]?
A: Toxic

Q: What about the Activity [31] of the same compound?
A: Active

Q: And the Activity [32]?
A: Active

Q: What about the Activity [33] of the same compound?
A: Active

Q: What about the Activity [34] of the same compound?
A: 0.1 g

Q: And the Activity [35]?
A: Active

Q: What about the Cmax [36] of the same compound?
A: 55.8 ng/mL

Q: What about the Activity [37] of the same compound?
A: Non-Toxic

Q: And the survival at 648 h [38]?
A: 100%
